Drawing on US12091411B2, “IRAK degraders and uses thereof” (Kymera Therapeutics, Inc., priority 2022, dated 2024), this text covers DC50 for 35 compounds.

This test addresses T1, IRAK4 (Homo sapiens, UniProt Q9NWZ3).
T1 construct: Degradation of IRAK4 in OCI-LY10 was quantitatively measured using Meso Scale Discovery technology; endogenous in cells; host or cells: OCI-LY10
T1 sequence (Q9NWZ3 1-460): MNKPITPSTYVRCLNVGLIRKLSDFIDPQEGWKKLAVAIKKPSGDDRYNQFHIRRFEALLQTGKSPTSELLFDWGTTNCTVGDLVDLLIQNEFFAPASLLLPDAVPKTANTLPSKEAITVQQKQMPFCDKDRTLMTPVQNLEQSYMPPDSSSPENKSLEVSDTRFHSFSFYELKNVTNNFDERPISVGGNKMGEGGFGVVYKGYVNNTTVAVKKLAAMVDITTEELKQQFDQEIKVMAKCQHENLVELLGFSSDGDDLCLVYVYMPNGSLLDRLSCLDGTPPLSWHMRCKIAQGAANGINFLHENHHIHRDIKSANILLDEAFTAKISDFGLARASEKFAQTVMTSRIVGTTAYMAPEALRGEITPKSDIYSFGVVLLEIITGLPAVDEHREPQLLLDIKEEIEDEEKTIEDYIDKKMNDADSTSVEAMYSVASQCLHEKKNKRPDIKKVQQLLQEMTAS
Description: IRAK4 MSD Degradation in OCI-LY10. The test is classed as cell-based. The note with it: OCI-LY10 cells, MSD. An outline of the steps:
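DC50, from a three-parameter logistic fit and reported as letter bins A (<0.01 μM), B, C, D (>0.2 μM or not tested), reflects IRAK4 loss measured by MSD electrochemiluminescence in OCI-LY10 lysates. Treatment: 8 doses, 1:3 steps, top 1 to 10 μM, 4 to 24 h, 37 °C.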

The mark [1] stands for this setting: 4 hrs incubation, read-out: IRAK4 degradation in OCI-LY10 at 4 hrs: DC50.
[2] abbreviates: 24 hrs incubation, read-out: IRAK4 degradation in OCI-LY10 at 24 hrs: DC50.

What is called DC50 is the concentration giving 50% degradation.

Read-outs that look alike come from different tables or passages of the source. Where only a bound is given, the exact number is not on record here.

With `O=C1CCN(c2cncc3cc(C4CCN(C5CCN(C[C@H]6CC[C@H](n7cc(NC(=O)c8cnn9ccc(N%10C[C@H]%11C[C@@H]%10CO%11)nc89)c(C(F)F)n7)CC6)CC5)CC4)ccc23)C(=O)N1` [I-75], the DC50 under setting [1] is under 10 nM and the DC50 under setting [2] is over 200 nM.

In the case of `O=C1CCN(c2cncc3c(N4CCN(C5CCN(C[C@H]6CC[C@H](n7cc(NC(=O)c8cnn9ccc(N%10C[C@H]%11C[C@@H]%10CO%11)nc89)c(C(F)F)n7)CC6)CC5)CC4)cccc23)C(=O)N1` [I-76], the DC50 under setting [1] was under 10 nM and the DC50 under setting [2] is over 200 nM.

Turning to `O=C1CCN(c2cncc3cc(N4CCN(C5CCN(C[C@H]6CC[C@H](n7cc(NC(=O)c8cnn9ccc(N%10C[C@H]%11C[C@@H]%10CO%11)nc89)c(C(F)F)n7)CC6)CC5)CC4)ccc23)C(=O)N1` [I-77], the DC50 is, setting by setting: under setting [1], under 10 nM; under setting [2], over 200 nM.

Take `Cn1c(=O)n(C2CCC(=O)NC2=O)c2cccc([C@H]3C[C@@H](CN4CCN(C[C@H]5CC[C@H](n6cc(NC(=O)c7cnn8ccc(N9C[C@H]%10CC9CO%10)nc78)c(C(F)F)n6)CC5)CC4)C3)c21` (stereo partly shown) [I-78]: the DC50 runs as follows: under setting [1], under 10 nM; under setting [2], over 200 nM.

Take `Cn1c(=O)n(C2CCC(=O)NC2=O)c2cccc([C@H]3C[C@H](CN4CCN(C[C@H]5CC[C@H](n6cc(NC(=O)c7cnn8ccc(N9C[C@H]%10C[C@@H]9CO%10)nc78)c(C(F)F)n6)CC5)CC4)C3)c21` (stereo partly shown) [I-79]: the DC50 was under 10 nM under setting [1] and over 200 nM under setting [2].

For `C[C@H]1CN(C[C@H]2CC[C@H](n3cc(NC(=O)c4cnn5ccc(N6C[C@@H]7C[C@H]6CO7)nc45)c(C(F)F)n3)CC2)CC[C@@H]1OCC#Cc1cccc2c1n(C)c(=O)n2[C@@H]1CCC(=O)NC1=O` [I-80], the DC50 by setting is: under setting [1], 10 to 100 nM; under setting [2], over 200 nM.

On to `Cn1c(=O)n(C2CCC(=O)NC2=O)c2cccc([C@H]3C[C@@H](OC4CCN(C[C@H]5CC[C@H](n6cc(NC(=O)c7cnn8ccc(N9C[C@H]%10C[C@@H]9CO%10)nc78)c(C(F)F)n6)CC5)CC4)C3)c21` (stereo partly shown) [I-81], for which the DC50 under setting [1] is under 10 nM and the DC50 under setting [2] was over 200 nM.

For `Cn1c(=O)n(C2CCC(=O)NC2=O)c2cccc([C@H]3C[C@H](OC4CCN(C[C@H]5CC[C@H](n6cc(NC(=O)c7cnn8ccc(N9C[C@H]%10C[C@@H]9CO%10)nc78)c(C(F)F)n6)CC5)CC4)C3)c21` (stereo partly shown) [I-82], the DC50 is over 200 nM under setting [1] and over 200 nM under setting [2].

Regarding `COc1cc2nn([C@H]3CC[C@H](CN4CCC5(CC4)CCN(c4cccc6c4n(C)c(=O)n6C4CCC(=O)NC4=O)CC5)CC3)cc2cc1NC(=O)c1cncc(F)c1` (stereo partly shown) [I-83], the DC50 is, setting by setting: under setting [1], over 200 nM; under setting [2], over 200 nM.

Turning to `COc1cc2nn([C@H]3CC[C@H](CN4CCC5(CC4)CCN(c4c(C)ccc6c4n(C)c(=O)n6C4CCC(=O)NC4=O)CC5)CC3)cc2cc1NC(=O)c1cncc(C#N)c1` (stereo partly shown) [I-84], the DC50 under setting [1] is over 200 nM and the DC50 under setting [2] was over 200 nM.

In the case of `COc1cc2nn([C@H]3CC[C@H](CN4CCC5(CC4)CCN(c4cccc(N6CCC(=O)NC6=O)c4)CC5)CC3)cc2cc1NC(=O)c1cncc(C#N)c1` [I-85], the DC50 under setting [1] is over 200 nM and the 50% degradation concentration (DC50) under setting [2] is over 200 nM.

With `COc1cncc(C(=O)Nc2cc3cn([C@H]4CC[C@H](CN5CCC6(CC5)CCN(c5cccc7c5n(C)c(=O)n7C5CCC(=O)NC5=O)CC6)CC4)nc3cc2OC)c1` (stereo partly shown) [I-86], the DC50 was over 200 nM under setting [1] and over 200 nM under setting [2].

Regarding `COc1cc2nn([C@H]3CC[C@H](CN4CCC5(CC4)CCN(c4c(OC)ccc6c4n(C)c(=O)n6C4CCC(=O)NC4=O)CC5)CC3)cc2cc1NC(=O)c1cncc(C#N)c1` (stereo partly shown) [I-87], the DC50 under setting [1] was under 10 nM and the DC50 under setting [2] was under 10 nM.

In the case of `COc1cc2nn([C@H]3CC[C@H](CN4CCC5(CC4)CCN(c4ccc(C6CCC(=O)NC6=O)cc4)CC5)CC3)cc2cc1NC(=O)c1cncc(C#N)c1` (stereo partly shown) [I-88], the DC50 runs as follows: under setting [1], 10 to 100 nM; under setting [2], over 200 nM.

For `COc1cc2nn([C@H]3CC[C@H](CN4CCC5(CC4)CCN(c4cccc6c4n(C)c(=O)n6C4CCC(=O)NC4=O)CC5)CC3)cc2cc1NC(=O)c1cncc(C)c1` (stereo partly shown) [I-89], the DC50 is, setting by setting: under setting [1], over 200 nM; under setting [2], over 200 nM.

Take `COc1cc2nn([C@H]3CC[C@H](CN4CCC5(CC4)CCN(c4cccc6c(N7CCC(=O)NC7=O)cncc46)CC5)CC3)cc2cc1NC(=O)c1cncc(C#N)c1` [I-90]: the DC50 by setting is: under setting [1], over 200 nM; under setting [2], over 200 nM.

In the case of `COc1cc2nn([C@H]3CC[C@H](CN4CCC5(CC4)CCN(c4cccc(C6CCC(=O)NC6=O)c4)CC5)CC3)cc2cc1NC(=O)c1cncc(C#N)c1` (stereo partly shown) [I-91], the DC50 is over 200 nM under setting [1] and 100 to 200 nM under setting [2].

Regarding `COc1cc2nn([C@H]3CC[C@H](CN4CCC5(CC4)CCN(c4cccc6c4n(C)c(=O)n6C4CCC(=O)NC4=O)CC5)CC3)cc2cc1NC(=O)c1cncc(C(F)(F)F)c1` (stereo partly shown) [I-92], the DC50 runs as follows: under setting [1], over 200 nM; under setting [2], over 200 nM.

As to `COc1cc2nn([C@H]3CC[C@H](CN4CCC5(CC4)CCN(c4cccc6c(N7CCC(=O)NC7=O)cccc46)CC5)CC3)cc2cc1NC(=O)c1cncc(C#N)c1` [I-93], the DC50 reads like this: under setting [1], 10 to 100 nM; under setting [2], 10 to 100 nM.

Turning to `COc1cc2nc([C@H]3CC[C@H](CN4CCC5(CC4)CCN(c4cccc6c4n(C)c(=O)n6C4CCC(=O)NC4=O)CC5)CC3)sc2cc1NC(=O)c1cncc(C#N)c1` (stereo partly shown) [I-94], the DC50 runs as follows: under setting [1], over 200 nM; under setting [2], over 200 nM.

Turning to `COc1cc2nn([C@H]3CC[C@H](CN4CCC5(CC4)CCN(c4c(F)ccc6c4n(C)c(=O)n6C4CCC(=O)NC4=O)CC5)CC3)cc2cc1NC(=O)c1cncc(C#N)c1` (stereo partly shown) [I-95], the 50% degradation concentration (DC50) reads like this: under setting [1], over 200 nM; under setting [2], over 200 nM.

In the case of `COc1cc2nn([C@H]3CC[C@H](CN4CCC5(CC4)CCN(c4ccc(N6CCC(=O)NC6=O)cc4)CC5)CC3)cc2cc1NC(=O)c1cncc(C#N)c1` [I-96], the DC50 is, setting by setting: under setting [1], over 200 nM; under setting [2], over 200 nM.

Consider `Cn1c(=O)n(C2CCC(=O)NC2=O)c2cccc(N3CCC4(CCN(C[C@H]5CC[C@H](c6nc7cc(C(C)(C)O)c(NC(=O)c8cncc(C#N)c8)cc7s6)CC5)CC4)CC3)c21` (stereo partly shown) [I-97], for which the DC50 was under 10 nM under setting [1] and over 200 nM under setting [2].

Turning to `Cn1c(=O)n(C2CCC(=O)NC2=O)c2cccc(C#CCN3CCN(C[C@H]4CC[C@H](n5cc(NC(=O)c6cnn7ccc(N8CCOCC8)nc67)c(C(F)F)n5)CC4)CC3)c21` (stereo partly shown) [I-98], the DC50 was under 10 nM under setting [1] and over 200 nM under setting [2].

For `COc1ccn2ncc(C(=O)Nc3cn([C@H]4CC[C@H](CN5CCN(CC#Cc6cccc7c6n(C)c(=O)n7C6CCC(=O)NC6=O)CC5)CC4)nc3C(F)F)c2n1` (stereo partly shown) [I-99], the DC50 under setting [1] was in the range of 10 to 100 nM and the DC50 under setting [2] was over 200 nM.

Take `Cn1c(=O)n(C2CCC(=O)NC2=O)c2cccc(C#CCN3CCN(C[C@H]4CC[C@H](n5cc(NC(=O)c6cnn7ccc(N8CCCCC8)nc67)c(C(F)F)n5)CC4)CC3)c21` (stereo partly shown) [I-100]: the DC50 under setting [1] lay within 10 to 100 nM and the DC50 under setting [2] was over 200 nM.

As to `CN(C)c1ccn2ncc(C(=O)Nc3cn([C@H]4CC[C@H](CN5CCN(CC#Cc6cccc7c6n(C)c(=O)n7C6CCC(=O)NC6=O)CC5)CC4)nc3C(F)F)c2n1` (stereo partly shown) [I-101], the DC50 is under 10 nM under setting [1] and over 200 nM under setting [2].

As to `Cc1ccn2ncc(C(=O)Nc3cn([C@H]4CC[C@H](CN5CCN(CC#Cc6cccc7c6n(C)c(=O)n7C6CCC(=O)NC6=O)CC5)CC4)nc3C(F)F)c2n1` (stereo partly shown) [I-102], the DC50 is, setting by setting: under setting [1], 10 to 100 nM; under setting [2], over 200 nM.

Turning to `Cn1c(=O)n(C2CCC(=O)NC2=O)c2cccc(C#CCN3CCN(C[C@H]4CC[C@H](n5cc(NC(=O)c6cnn7ccc(N8CCCC8)nc67)c(C(F)F)n5)CC4)CC3)c21` (stereo partly shown) [I-103], the DC50 is, setting by setting: under setting [1], under 10 nM; under setting [2], over 200 nM.

Take `CC(C)c1ccn2ncc(C(=O)Nc3cn([C@H]4CC[C@H](CN5CCN(CC#Cc6cccc7c6n(C)c(=O)n7C6CCC(=O)NC6=O)CC5)CC4)nc3C(F)F)c2n1` (stereo partly shown) [I-104]: the DC50 under setting [1] was in the range of 10 to 100 nM and the DC50 under setting [2] was over 200 nM.

Consider `Cn1c(=O)n(C2CCC(=O)NC2=O)c2cccc(C#CCN3CCN(C[C@H]4CC[C@H](n5cc(NC(=O)c6cnn7ccc(C8C[C@H]9C[C@@H]8CO9)nc67)c(C(F)F)n5)CC4)CC3)c21` (stereo partly shown) [I-105], for which the DC50 runs as follows: under setting [1], over 200 nM; under setting [2], over 200 nM.

Turning to `Cn1c(=O)n(C2CCC(=O)NC2=O)c2cccc(C#CCN3CCN(C[C@H]4CC[C@H](n5cc(NC(=O)c6cnn7ccc(N8CCC8)nc67)c(C(F)F)n5)CC4)CC3)c21` (stereo partly shown) [I-106], the half-maximal degradation concentration (DC50) under setting [1] is under 10 nM and the DC50 under setting [2] is over 200 nM.

Turning to `Cn1c(=O)n(C2CCC(=O)NC2=O)c2cccc(C#CCN3CCN(CC4CCC(n5cc(NC(=O)c6cnn7ccc(N8CC9CC8CO9)nc67)c(C(F)F)n5)CC4)CC3)c21` (stereo not shown) [I-108], the DC50 reads like this: under setting [1], over 200 nM; under setting [2], over 200 nM.

For `Cn1c(=O)n(C2CCC(=O)NC2=O)c2cccc(C#CCN3CCN(C[C@H]4CC[C@H](n5cc(NC(=O)c6cnn7ccc(C8CCC8)nc67)c(C(F)F)n5)CC4)CC3)c21` (stereo partly shown) [I-109], the DC50 under setting [1] fell in the range of 10 to 100 nM and the DC50 under setting [2] was over 200 nM.

As for `CCc1ccn2ncc(C(=O)Nc3cn([C@H]4CC[C@H](CN5CCN(CC#Cc6cccc7c6n(C)c(=O)n7C6CCC(=O)NC6=O)CC5)CC4)nc3C(F)F)c2n1` (stereo partly shown) [I-110], the DC50 lay in the range of 10 to 100 nM under setting [1] and 10 to 100 nM under setting [2].
